From ChEMBL document CHEMBL5518238, “Structure-Activity Relationship (SAR) Studies of Novel Monovalent AR/AR-V7 Dual Degraders with Potent Efficacy against Advanced Prostate Cancer” (J Med Chem, 2024)
Active and inactive are the calls of the source. The rule behind the calls is not given here.

Test system: CWR22R
Assay: cells
Assay type: functional, cell-based
Conditions: Homo sapiens, 22Rv1, 48 h
Description: Antiproliferative activity against AR/AR-V7 positive human 22Rv1 cells assessed as inhibition of cell growth incubated for 48 hrs by CCK-8 assay

| SMILES | IC50 |
| --- | --- |
| CC1(C)C(=O)N(c2ccc(C#N)c(C(F)(F)F)c2)C(=O)N1CCNc1cnc2ccccc2c1 | 49.5 µM |
| CC1(C)C(=O)N(c2ccc(C#N)c(C(F)(F)F)c2)C(=O)N1CCNc1ccc2ccccc2c1 | > 50 µM |
| Cc1ccc(NCCCN2C(=O)N(c3ccc(C#N)c(C(F)(F)F)c3)C(=O)C2(C)C)c2cccnc12 | 36.8 µM |
| CC1(C)C(=O)N(c2ccc(C#N)c(C(F)(F)F)c2)C(=O)N1CCCn1cc(C(F)(F)F)cn1 | 19.8 µM |
| CC1(C)C(=O)N(c2ccc(C#N)c(C(F)(F)F)c2)C(=O)N1CCNc1ccc2ccccc2n1 | 11.7 µM |
| CC1(C)C(=O)N(c2ccc(C#N)c(C(F)(F)F)c2)C(=O)N1CCN(c1ccc2ncccc2c1)c1ccc2ncccc2c1 | 6.8 µM |
| CC1(C)C(=O)N(c2ccc(C#N)c(C(F)(F)F)c2)C(=O)N1CCCNc1cccc2ncccc12 | 25.7 µM |
| CC1(C)C(=O)N(c2ccc(C#N)c(C(F)(F)F)c2)C(=O)N1CCN(c1ccc2ncncc2c1)c1ccc2ncncc2c1 | 15 µM |
| CC1(C)C(=O)N(c2ccc(C#N)c(C(F)(F)F)c2)C(=O)N1CCNc1cccc2cccnc12 | > 50 µM |
| CC1(C)C(=O)N(c2ccc([N+](=O)[O-])c(C(F)(F)F)c2)C(=O)N1CC(=O)Nc1cccnc1 | > 50 µM |
| CC1(C)C(=O)N(c2ccc(C#N)c(C(F)(F)F)c2)C(=O)N1CCNc1ncccn1 | 24.9 µM |
| CC1(C)C(=O)N(c2ccc(C#N)c(C(F)(F)F)c2)C(=O)N1CCNc1ccc([N+](=O)[O-])c2ncccc12 | 3.1 µM |
| CC1(C)C(=O)N(c2ccc(C#N)c(C(F)(F)F)c2)C(=O)N1CCn1cc(Br)cn1 | 46.3 µM |
| CC1(C)C(=O)N(c2ccc(C#N)c(C(F)(F)F)c2)C(=O)N1CCNc1ccc2cccnc2c1 | 2.2 µM |
| CC1(C)C(=O)N(c2ccc(C#N)c(C(F)(F)F)c2)C(=O)N1CCCn1cc(F)cn1 | 3.7 µM |
| CC1(C)C(=O)N(c2ccc(C#N)c(C(F)(F)F)c2)C(=O)N1CCNc1ccc(C#N)c2ncccc12 | 2.8 µM |
| CC1(C)C(=O)N(c2ccc(C#N)c(C(F)(F)F)c2)C(=O)N1CCNc1cccc2ccncc12 | 7.8 µM |
| CC1(C)C(=O)N(c2ccc(C#N)c(C(F)(F)F)c2)C(=O)N1CCn1cc(F)cn1 | 7.9 µM |
| CC1(C)C(=O)N(c2ccc(C#N)c(C(F)(F)F)c2)C(=O)N1CC(=O)Nc1cccnc1 | 10.8 µM |
| CC1(C)C(=O)N(c2ccc(C#N)c(C(F)(F)F)c2)C(=O)N1CCNc1ccc2ccncc2c1 | 2.3 µM |

| SMILES | IC50 |
| --- | --- |
| CC1(C)C(=O)N(c2ccc([N+](=O)[O-])c(C(F)(F)F)c2)C(=O)N1CC(=O)NCc1ccccn1 | 26 µM |
| CC1(C)C(=O)N(c2ccc(C#N)c(C(F)(F)F)c2)C(=O)N1Cn1cc(C(F)(F)F)cn1 | 11.3 µM |
| CC1(C)C(=O)N(c2ccc(C#N)c(C(F)(F)F)c2)C(=O)N1Cn1cc(Br)cn1 | 23.2 µM |
| CC1(C)C(=O)N(c2ccc(C#N)c(C(F)(F)F)c2)C(=O)N1CCN(c1ccc2nccnc2c1)c1ccc2nccnc2c1 | 12.2 µM |
| CC1(C)C(=O)N(c2ccc(C#N)c(C(F)(F)F)c2)C(=O)N1CCCNc1cccc2ccncc12 | 21.8 µM |
| CC1(C)C(=O)N(c2ccc(C#N)c(C(F)(F)F)c2)C(=O)N1CC(=O)NCc1cccnc1 | 22.1 µM |
| CC1(C)C(=O)N(c2ccc(C#N)c(C(F)(F)F)c2)C(=O)N1CCNc1cccnc1 | 11.9 µM |
| CC1(C)C(=O)N(c2ccc(C#N)c(C(F)(F)F)c2)C(=O)N1CC(=O)Nc1ccccn1 | 17 µM |
| CC1(C)C(=O)N(c2ccc(C#N)c(C(F)(F)F)c2)C(=O)N1CCNc1ccccn1 | 13.1 µM |
| CC1(C)C(=O)N(c2ccc(C#N)c(C(F)(F)F)c2)C(=O)N1CCNc1cccc2ncccc12 | 1.3 µM |
| CNC(=O)c1ccc(N2C(=S)N(c3ccc(C#N)c(C(F)(F)F)c3)C(=O)C2(C)C)cc1F [ENZALUTAMIDE] | 15.6 µM |
| CC1(C)C(=O)N(c2ccc(C#N)c(C(F)(F)F)c2)C(=O)N1CCNc1ccc2ncccc2c1 | 5.4 µM |
| CC1(C)C(=O)N(c2ccc(C#N)c(C(F)(F)F)c2)C(=O)N1CC(=O)Nc1ccc2ncccc2c1 | 35.8 µM |
| CC1(C)C(=O)N(c2ccc(C#N)c(C(F)(F)F)c2)C(=O)N1CC(=O)Nc1cccc2cccnc12 | 23.5 µM |
| CC1(C)C(=O)N(c2ccc(C#N)c(C(F)(F)F)c2)C(=O)N1CCNc1ccc2cnccc2c1 | 5.1 µM |
| CC1(C)C(=O)N(c2ccc(C#N)c(C(F)(F)F)c2)C(=O)N1CCCNc1ccc2ncccc2c1 | 27.3 µM |
| CC1(C)C(=O)N(c2ccc(C#N)c(C(F)(F)F)c2)C(=O)N1CC(=O)Nc1ccnc2ccccc12 | 13.8 µM |
| CC1(C)C(=O)N(c2ccc(C#N)c(C(F)(F)F)c2)C(=O)N1CCN(c1ccc(-c2ccncc2)cc1)c1ccc(-c2ccncc2)cc1 | > 50 µM |
| CC1(C)C(=O)N(c2ccc(C#N)c(C(F)(F)F)c2)C(=O)N1CCN(c1ccc2cccnc2c1)c1ccc2cccnc2c1 | > 50 µM |
| CC1(C)C(=O)N(c2ccc(C#N)c(C(F)(F)F)c2)C(=O)N1CCNc1ccnc2ccccc12 | 8.7 µM |

| SMILES | IC50 |
| --- | --- |
| CC1(C)C(=O)N(c2ccc(C#N)c(C(F)(F)F)c2)C(=O)N1CC(=O)NCc1ccccn1 | 33.7 µM |
| CC1(C)C(=O)N(c2ccc(C#N)c(C(F)(F)F)c2)C(=O)N1Cn1cc(F)cn1 | 14.5 µM |
| CC1(C)C(=O)N(c2ccc(C#N)c(C(F)(F)F)c2)C(=O)N1CCn1cnc(C(F)(F)F)n1 | 10.3 µM |
| CC1(C)C(=O)N(c2ccc(C#N)c(C(F)(F)F)c2)C(=O)N1CC(=O)Nc1cccc2ncccc12 | 24.9 µM |
| CC1(C)C(=O)N(c2ccc(C#N)c(C(F)(F)F)c2)C(=O)N1CCCn1ccc2cc(F)ccc21 | 13.6 µM |
| Cc1ccc(NCCN2C(=O)N(c3ccc(C#N)c(C(F)(F)F)c3)C(=O)C2(C)C)c2cccnc12 | 9.8 µM |
| C[C@]12CC[C@H](O)CC1=CC[C@@H]1[C@@H]2CC[C@]2(C)C(n3cnc4ccccc43)=CC[C@@H]12 [GALETERONE] | 11.6 µM |
| CC1(C)C(=O)N(c2ccc(C#N)c(C(F)(F)F)c2)C(=O)N1CCn1cc(C(F)(F)F)cn1 | 8.9 µM |
| CC1(C)C(=O)N(c2ccc(C#N)c(C(F)(F)F)c2)C(=O)N1CCNc1cccc2ccccc12 | 19.5 µM |
| CC1(C)C(=O)N(c2ccc([N+](=O)[O-])c(C(F)(F)F)c2)C(=O)N1CC(=O)NCc1cccnc1 | > 50 µM |
| CC1(C)C(=O)N(c2ccc([N+](=O)[O-])c(C(F)(F)F)c2)C(=O)N1CC(=O)Nc1ccccn1 | > 50 µM |
| CC1(C)C(=O)N(c2ccc(C#N)c(C(F)(F)F)c2)C(=O)N1CCNc1cncnc1 | 43.9 µM |
| CC1(C)C(=O)N(c2ccc(C#N)c(C(F)(F)F)c2)C(=O)N1CCCNc1ccc2ccncc2c1 | 22 µM |
| CC1(C)C(=O)N(c2ccc(C#N)c(C(F)(F)F)c2)C(=O)N1CCNc1cnccn1 | 10.6 µM |
| CC(C)(c1ccc(OC[C@H](O)CO)cc1)c1ccc(OC[C@H](O)CCl)cc1 | 40.4 µM |
| CC1(C)C(=O)N(c2ccc(C#N)c(C(F)(F)F)c2)C(=O)N1CCCn1cc(Br)cn1 | 2 µM |
| CC1(C)C(=O)N(c2ccc(C#N)c(C(F)(F)F)c2)C(=O)N1CC(=O)Nc1cnc2ccccc2c1 | 14.6 µM |
| N#Cc1ccc(O[C@H]2CC[C@H](NC(=O)c3ccc(N4CCC(CN5CCN(c6cc7c(cc6F)C(=O)N(C6CCC(=O)NC6=O)C7=O)CC5)CC4)nn3)CC2)cc1Cl (stereo not given in full) [BAVDEGALUTAMIDE] | 3.9 µM |

Test system: DU-145
Assay: Antiproliferative activity against AR-negative human DU-145 cells assessed as inhibition of cell growth incubated for 48 hrs by CCK-8 assay
Assay type: functional, cell-based
Conditions: DU-145, 48 h

| SMILES | IC50 |
| --- | --- |
| CC1(C)C(=O)N(c2ccc(C#N)c(C(F)(F)F)c2)C(=O)N1CCNc1ccc([N+](=O)[O-])c2ncccc12 | > 50 µM |
| CC1(C)C(=O)N(c2ccc(C#N)c(C(F)(F)F)c2)C(=O)N1CCNc1ccc(C#N)c2ncccc12 | > 50 µM |
| CC1(C)C(=O)N(c2ccc(C#N)c(C(F)(F)F)c2)C(=O)N1CCNc1cccc2ccncc12 | > 50 µM |
| CC1(C)C(=O)N(c2ccc(C#N)c(C(F)(F)F)c2)C(=O)N1CCNc1ccc2ccncc2c1 | > 50 µM |
| CC1(C)C(=O)N(c2ccc(C#N)c(C(F)(F)F)c2)C(=O)N1CCNc1ccc2cnccc2c1 | 33 µM |
| Cc1ccc(NCCN2C(=O)N(c3ccc(C#N)c(C(F)(F)F)c3)C(=O)C2(C)C)c2cccnc12 | > 50 µM |

Test system: LNCaP
Assay: Antiproliferative activity against human LNCaP cells assessed as inhibition of cell growth incubated for 48 hrs by CCK-8 assay
Assay type: functional, cell-based
Conditions: not given

| IC50 | SMILES |
| --- | --- |
| 2 µM | C[C@]12CC[C@H](O)CC1=CC[C@@H]1[C@@H]2CC[C@]2(C)C(n3cnc4ccccc43)=CC[C@@H]12 [GALETERONE] |

Test system: not listed separately
Assay: Antiproliferative activity against human L02 cells assessed as inhibition of cell growth incubated for 48 hrs by CCK-8 assay
Assay type: toxicity, cell-based
Conditions: not given

| SMILES | IC50 at 48 h |
| --- | --- |
| C[C@]12CC[C@H](O)CC1=CC[C@@H]1[C@@H]2CC[C@]2(C)C(n3cnc4ccccc43)=CC[C@@H]12 [GALETERONE] | > 100 µM |

Test system: not listed separately
Assay: Toxicity in NSG mouse xenografted with human 22Rv1 cells assessed as effect on body weight at 30 mg/kg, IG administered once daily for 21 days
Assay type: organism-based, CWR22R
Conditions: in vivo, po, 504 h, time 21 day

| SMILES | Activity |
| --- | --- |
| C[C@]12CC[C@H](O)CC1=CC[C@@H]1[C@@H]2CC[C@]2(C)C(c3cccnc3)=CC[C@@H]12 [ABIRATERONE] | Non-Toxic |
| CNC(=O)c1ccc(N2C(=S)N(c3ccc(C#N)c(C(F)(F)F)c3)C(=O)C2(C)C)cc1F [ENZALUTAMIDE] | Non-Toxic |

Test system: CWR22R
Assay: Antitumor activity against human 22Rv1 cells xenografted in NSG mouse assessed as change in tumor volume at 30 mg/kg, IG administered once daily for 21 days
Assay type: functional, organism-based
Conditions: time 21.0 day

| SMILES | Activity |
| --- | --- |
| C[C@]12CC[C@H](O)CC1=CC[C@@H]1[C@@H]2CC[C@]2(C)C(c3cccnc3)=CC[C@@H]12 [ABIRATERONE] | Active |
| CNC(=O)c1ccc(N2C(=S)N(c3ccc(C#N)c(C(F)(F)F)c3)C(=O)C2(C)C)cc1F [ENZALUTAMIDE] | Active |
